Measured values taken from paper PMC5362750, “Discovery of Potent, Selective, and Orally Bioavailable Small-Molecule Modulators of the Mediator Complex-Associated Kinases CDK8 and CDK19” (Journal of Medicinal Chemistry, 2016).
≈ marks a conversion by molar mass, not a printed value. Where two headings read alike, the source gives them in different places.

Columns and labels:
[1] = Caco-2 Papp determination; conditions: human, Caco-2, pH 7.4
[2] = human
In vivo mouse PK = conditions: female, NMRI, plasma; for Vd / clearance: iv, 0.2 mg/kg; for clearance: Cl, 0.2 mg/kg iv; for bioavailability: po, 0.5 mg/kg
[3] = tested on: WNT-dependent signaling, 7dF3 cells (HEK293); experiment: 7dF3 luciferase reporter assay; type: cell-based, human
[4] = Thermodynamic solubility determination; type: physicochemical; conditions: for solubility at 24 h: phosphate buffer, pH 7.4, TFA salt, pH 7.4, 37 °C, read-out: Solubility Therm.
[5] = Mouse Clint determination; type: in vitro ADME
Protocol: (§1) Mouse, Rat, and Human Clint Determination
(§2) Microsomes (final concentration 0.5 mg/mL), 50 mM phosphate buffer pH 7.4, and compound (final concentration 1 μM) were added to the assay plate and allowed to preincubate for 5 min at 37 °C. The reaction was initiated by the addition of NADPH (final concentration 1.5 mM), and the plate was shaken at 800 rpm at 37 °C. After 0, 5, 10, 20, and 30 min aliquots were taken and the reaction was stopped using cold acetonitrile. The samples were centrifuged at 4000 rpm for 30 min at 4 °C and analyzed by LC–MS/MS. Four test compounds were pooled for analysis. The in vitro intrinsic clearance was calculated from the rate of compound disappearance.

Rat Clint determination = type: in vitro ADME; conditions: pH 7.4; rat microsomes
[6] = Kinetic solubility determination; conditions: phosphate buffer, pH 7.4, Solubility Kinetic, free base
[7] = Human Clint determination; type: in vitro ADME; conditions: pH 7.4; human microsomes
Protocol: as §1, §2

Papp A→B at 2 h, 1 μM [1]	Vd (In vivo mouse PK)	clearance (In vivo mouse PK)	bioavailability (In vivo mouse PK)	solubility at 24 h [4]	SMILES	other results
4.9 ×10⁻⁶ cm/s	1.19 L/kg	84 mL/min/kg	11%	759 µg/mL	O=C1NCCC12CCN(c1c(Cl)cncc1-c1ccc3c(c1)CS(=O)(=O)N3)CC2 [Compound 22]	drop in cell-based potency ([3]; 7dF3, compared to 6): 23 fold; improvement of thermodynamic aqueous solubility ([4]; compared to 6): 120 fold
15.9 ×10⁻⁶ cm/s	1.26 L/kg	26 mL/min/kg	11%	39 µg/mL	Cn1cc(-c2ccc(-c3cncc(Cl)c3N3CCC4(CC3)NC(=O)NC4=O)cc2)cn1 [Compound 45]	–
19.8 ×10⁻⁶ cm/s	1.96 L/kg	69.2 mL/min/kg	9%	613 µg/mL	CC1=NC2(CCN(c3c(Cl)cncc3-c3ccc4c(c3)CS(=O)(=O)N4C)CC2)C(=O)N1 [Compound 47]	–
6.7 ×10⁻⁶ cm/s	1.84 L/kg	71.2 mL/min/kg	5%	8 µg/mL	Cn1cc(-c2ccc(-c3cncc(Cl)c3N3CCC4(CC3)NC(=O)CNC4=O)cc2)cn1 [Compound 48]	–
40 ×10⁻⁶ cm/s	–	–	–	–	CC1=NNC(=O)C12CCN(c1c(Cl)cncc1-c1ccc3c(c1)CS(=O)(=O)N3C)CC2 [Compound 49]	efflux ratio at 2 h, 1 μM [1]: 4.9; improvement in potency in the 7dF3 assay ([3]; compared to 23): 13 fold
47.4 ×10⁻⁶ cm/s	2.3 L/kg	30.3 mL/min/kg	48%	35 µg/mL	Cn1cc(-c2ccc(-c3cncc(C(F)(F)F)c3N3CCC4(CC3)CNC(=O)O4)cc2)cn1 [Compound 72, 8-(3-(4-(1-Methyl-1H-pyrazol-4-yl)phenyl)-5-(trifluoromethyl)pyridin-4-yl)-1-oxa-3,8-diazaspiro[4.5]decan-2-one 2,2,2-Trifluoroacetate]	–
1.3 ×10⁻⁶ cm/s	–	–	–	–	Nc1ncc(-c2ccc3c(N)n[nH]c3c2)c(N2CCC3(CCNC3=O)CC2)c1Cl [Compound 87]	more stable in mouse Clint experiments ([5]; compared to 25): at least 5 fold
48.3 ×10⁻⁶ cm/s	1.4 L/kg	22.5 mL/min/kg	35%	5 µg/mL	Cn1cc(-c2ccc(-c3cnc(N)c(Cl)c3N3CCC4(CC3)CNC(=O)O4)cc2)cn1 [Compound 89]	–
10.3 ×10⁻⁶ cm/s	1.81 L/kg	36 mL/min/kg	9%	2 µg/mL	CN1c2ccc(-c3cnc(N)c(Cl)c3N3CCC4(CC3)CNC(=O)O4)cc2CS1(=O)=O [Compound 90]	–
29.1 ×10⁻⁶ cm/s	1.93 L/kg	25 mL/min/kg	42%	8 µg/mL	Cn1cc(-c2ccc(-c3cnc(N)c(C(F)(F)F)c3N3CCC4(CC3)CNC(=O)O4)cc2)cn1 [Compound 95, 8-(2-Amino-5-(4-(1-methyl-1H-pyrazol-4-yl)phenyl)-3-(trifluoromethyl)pyridin-4-yl)-1-oxa-3,8-diazaspiro[4.5]decan-2-one 2,2,2-Trifluoroacetate]	–
–	–	–	–	–	CC(C)n1ncc2ccc(-c3cnc(N)c(Cl)c3N3CCC4(CCNC4=O)CC3)cc21 [Compound 111]	microsomal CLint at 1 μM (Rat Clint determination): 139 µL/min/mg; solubility kinetic at 120 min [6]: 126 µM (≈ 55.3 µg/mL); microsomal CLint at 1 μM ([5]; pH 7.4, mouse microsomes): 202 µL/min/mg; microsomal CLint at 1 μM [7]: 202 µL/min/mg

SMILES	Papp A→B at 2 h, 1 μM [1]	Vd (In vivo mouse PK)	clearance (In vivo mouse PK)	bioavailability (In vivo mouse PK)	solubility at 24 h [4]	other results
Cn1cc(-c2ccc(-c3cncc(Cl)c3N3CCC4(CCNC4=O)CC3)cc2)cn1 [Compound 6]	23.7 ×10⁻⁶ cm/s	–	–	–	–	clearance [2]: 14.7 mL/min/kg; clearance prediction, iviv from hepatocytes (human): 8.83 mL/min/kg; clearance prediction, simple allometry (human): 24.2 mL/min/kg; F (human prediction): ∼70%; Vd (human prediction): ∼0.85 L/kg; t1/2 (human prediction): ∼0.70 h; Cl (human prediction, mean of all methods): ∼0.88 L/h/kg
